Measurements as given in US20250353891A1 (MEDIMMUNE LIMITED, priority 2022, published 2025).
Starred links: 1 amine or outer side, 2 acyl side, 3 side chain; linkers in the order of their positions; H or OH if unused. Non-standard residues stand in square brackets, D forms with d. Residues, ends and D or L forms follow the SMILES beside them. Groups on a side chain read outwards from the residue. *: point of attachment. γGlu = O=C(O)[C@H](CCC(=O)[*:2])N[*:1]; Stearoyl = CCCCCCCCCCCCCCCCCC(=O)*; Palmitoyl = CCCCCCCCCCCCCCCC(=O)*; αMeF = C[C@](N)(Cc1ccccc1)C(=O)O; Myristoyl = CCCCCCCCCCCCCC(=O)*; PEG2 = NCCOCCOCCC(=O)O; Aib = CC(C)(N)C(=O)O

Tests used:
[1] = biological target: human glucagon receptor (hGCGR) (Homo sapiens, UniProt P47871); assay: cAMP production (HTRF) in CHO cells expressing hGCGR; type: cell-based; design: expressed in transfected cells; conditions: Table 6, peptides modified at position 17; cAMP in CHO hGCGR cells; geometric mean; read-out: hGluc-R EC50
Summary of the method: (§1)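 Cells were resuspended in assay buffer at batch-optimized density, typically 1×10^5 cells/mL for hGLP-1R and 2×10^5 cells/mL for hGCGR. After 30 min incubation at room temperature with compound, cAMP was measured by two-step HTRF. EC50 values came from 4-parameter logistic fits of % Delta F.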

[2] = biological target: human GLP-1 receptor (hGLP-1R) (Homo sapiens, UniProt P43220); assay: cAMP production (HTRF) in CHO cells expressing hGLP-1R; type: cell-based; design: expressed in transfected cells; conditions: for EC50: Table 6, peptides modified at position 17, cAMP in CHO hGLP-1R cells, geometric mean, read-out: hGLP-1R EC50; for % Relative Potency Ratio: Table 6, % GLP-1R activity relative to GLP-1 / % GlucR activity relative to glucagon
Summary of the method: as §1

Chain of human GLP-1 receptor (hGLP-1R) (P43220 24-463): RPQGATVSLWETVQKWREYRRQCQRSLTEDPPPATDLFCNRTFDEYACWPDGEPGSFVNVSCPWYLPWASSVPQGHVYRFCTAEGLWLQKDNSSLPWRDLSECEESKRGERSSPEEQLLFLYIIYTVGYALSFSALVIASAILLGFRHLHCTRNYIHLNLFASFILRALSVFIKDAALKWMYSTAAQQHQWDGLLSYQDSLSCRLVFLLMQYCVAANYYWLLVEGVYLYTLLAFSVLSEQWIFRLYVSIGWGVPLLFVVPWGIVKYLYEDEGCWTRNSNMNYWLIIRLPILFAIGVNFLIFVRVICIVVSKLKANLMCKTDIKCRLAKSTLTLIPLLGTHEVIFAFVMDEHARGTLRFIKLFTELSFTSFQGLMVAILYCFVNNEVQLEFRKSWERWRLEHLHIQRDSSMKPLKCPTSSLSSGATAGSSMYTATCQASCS
Chain of human glucagon receptor (hGCGR) (P47871 26-477): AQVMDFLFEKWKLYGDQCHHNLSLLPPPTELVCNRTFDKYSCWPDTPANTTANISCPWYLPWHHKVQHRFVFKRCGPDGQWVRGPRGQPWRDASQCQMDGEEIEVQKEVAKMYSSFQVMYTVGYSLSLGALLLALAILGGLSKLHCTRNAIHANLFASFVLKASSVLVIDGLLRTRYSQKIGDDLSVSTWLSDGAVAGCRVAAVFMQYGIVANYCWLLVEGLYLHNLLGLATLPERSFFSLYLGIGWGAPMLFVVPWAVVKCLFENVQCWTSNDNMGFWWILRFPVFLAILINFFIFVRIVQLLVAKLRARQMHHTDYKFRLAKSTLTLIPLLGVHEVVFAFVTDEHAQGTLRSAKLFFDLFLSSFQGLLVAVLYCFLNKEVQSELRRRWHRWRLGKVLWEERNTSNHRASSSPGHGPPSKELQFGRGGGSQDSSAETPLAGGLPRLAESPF

Q: With CCCCCCCCCCCCCCCC(=O)N[C@@H](CCC(=O)N[C@@H](CCC(=O)NCCOCCOCCC(=O)NCCOCCOCCC(=O)NCCCC[C@H](NC(=O)[C@H](CO)NC(=O)[C@H](CC(=O)O)NC(=O)[C@H](CC(C)C)NC(=O)[C@@H](NC(=O)[C@H](CCCCN)NC(=O)[C@H](CO)NC(=O)[C@@H](NC(=O)[C@H](CC(=O)O)NC(=O)[C@H](CO)NC(=O)[C@@H](NC(=O)[C@](C)(Cc1ccccc1)NC(=O)[C@H](CO)NC(=O)CNC(=O)[C@H](CCC(N)=O)NC(=O)[C@H](CO)NC(=O)[C@@H](N)Cc1c[nH]cn1)[C@@H](C)O)C(C)C)[C@@H](C)CC)C(=O)N[C@@H](C)C(=O)N[C@@H](C)C(=O)N[C@@H](CCC(N)=O)C(=O)N[C@@H](CC(=O)O)C(=O)N[C@@](C)(Cc1ccccc1)C(=O)N[C@H](C(=O)N[C@@H](CCC(=O)O)C(=O)N[C@H](C(=O)N[C@H](C(=O)N[C@@H](C)C(=O)N[C@@H](CC(N)=O)C(N)=O)[C@@H](C)CC)[C@@H](C)CC)C(C)C)C(=O)O)C(=O)O [Peptide 114] (H-HSQGS[αMeF]TSDVSKILDSK([PEG2-PEG2-γGlu-γGlu-Palmitoyl])AAQD[αMeF]VEIIAN-NH2; N-terminus assumed) as the compound, how does the EC50 [1] read?
A: 2.65 pM

Q: What about the EC50 [2] of the same compound?
A: 3.65 pM

Q: And the “% Relative Potency Ratio” value [2]?
A: 1.4

Q: For CCCCCCCCCCCCCCCC(=O)N[C@@H](CCC(=O)N[C@@H](CCC(=O)NCCOCCOCCC(=O)NCCOCCOCCC(=O)NCCCC[C@H](NC(=O)[C@H](CO)NC(=O)[C@H](CC(=O)O)NC(=O)[C@H](CC(C)C)NC(=O)[C@@H](NC(=O)[C@H](CCCCN)NC(=O)[C@H](CO)NC(=O)[C@@H](NC(=O)[C@H](CC(=O)O)NC(=O)[C@H](CO)NC(=O)[C@@H](NC(=O)[C@](C)(Cc1ccccc1)NC(=O)[C@H](CO)NC(=O)CNC(=O)[C@H](CCC(N)=O)NC(=O)[C@H](CO)NC(=O)[C@@H](N)Cc1c[nH]cn1)[C@@H](C)O)C(C)C)[C@@H](C)CC)C(=O)N[C@@H](C)C(=O)N[C@@H](C)C(=O)N[C@@H](CCC(N)=O)C(=O)N[C@@H](CC(=O)O)C(=O)N[C@@](C)(Cc1ccccc1)C(=O)N[C@H](C(=O)N[C@@H](CCC(=O)O)C(=O)N[C@@H](Cc1c[nH]c2ccccc12)C(=O)N[C@H](C(=O)N[C@H](C(=O)N[C@@H](CC(N)=O)C(=O)N[C@H](C(N)=O)[C@@H](C)O)[C@@H](C)CC)[C@@H](C)CC)C(C)C)C(=O)O)C(=O)O [Peptide 116] (H-HSQGS[αMeF]TSDVSKILDSK([PEG2-PEG2-γGlu-γGlu-Palmitoyl])AAQD[αMeF]VEWIINT-NH2; N-terminus assumed), which EC50 [1] is on record?
A: 10.3 pM

Q: What about the EC50 [2] of the same compound?
A: 24.3 pM

Q: What about the “% Relative Potency Ratio” value [2] of the same compound?
A: 0.8

Q: CCCCCCCCCCCCCCCC(=O)N[C@@H](CCC(=O)N[C@@H](CCC(=O)NCCOCCOCCC(=O)NCCOCCOCCC(=O)NCCCC[C@H](NC(=O)[C@H](CO)NC(=O)[C@H](CC(=O)O)NC(=O)[C@H](CC(C)C)NC(=O)[C@@H](NC(=O)[C@H](CCCCN)NC(=O)[C@H](CO)NC(=O)[C@@H](NC(=O)[C@H](CC(=O)O)NC(=O)[C@H](CO)NC(=O)[C@@H](NC(=O)[C@](C)(Cc1ccccc1)NC(=O)[C@H](CO)NC(=O)CNC(=O)[C@H](CCC(N)=O)NC(=O)[C@H](CO)NC(=O)[C@@H](N)Cc1c[nH]cn1)[C@@H](C)O)C(C)C)[C@@H](C)CC)C(=O)N[C@@H](C)C(=O)N[C@@H](C)C(=O)N[C@@H](CCC(N)=O)C(=O)N[C@@H](CC(=O)O)C(=O)N[C@@](C)(Cc1ccccc1)C(=O)N[C@H](C(=O)N[C@@H](CCC(N)=O)C(=O)NC(C)(C)C(=O)N[C@H](C(=O)N[C@H](C(=O)N[C@@H](CC(N)=O)C(=O)N[C@H](C(N)=O)[C@@H](C)O)[C@@H](C)CC)[C@@H](C)CC)C(C)C)C(=O)O)C(=O)O [Peptide 118] (H-HSQGS[αMeF]TSDVSKILDSK([PEG2-PEG2-γGlu-γGlu-Palmitoyl])AAQD[αMeF]VQ[Aib]IINT-NH2) was tested. Which EC50 [1] did it give?
A: 1.2 pM

Q: And the EC50 [2]?
A: 1.07 pM

Q: What about the “% Relative Potency Ratio” value [2] of the same compound?
A: 2.2

Q: For CCCCCCCCCCCCCC(=O)N[C@@H](CCC(=O)N[C@@H](CCC(=O)NCCOCCOCCC(=O)NCCOCCOCCC(=O)NCCCC[C@H](NC(=O)[C@H](CO)NC(=O)[C@H](CC(=O)O)NC(=O)[C@H](CC(C)C)NC(=O)[C@@H](NC(=O)[C@H](CCCCN)NC(=O)[C@H](CO)NC(=O)[C@@H](NC(=O)[C@H](CC(=O)O)NC(=O)[C@H](CO)NC(=O)[C@@H](NC(=O)[C@](C)(Cc1ccccc1)NC(=O)[C@H](CO)NC(=O)CNC(=O)[C@H](CCC(N)=O)NC(=O)[C@H](CO)NC(=O)[C@@H](N)Cc1c[nH]cn1)[C@@H](C)O)C(C)C)[C@@H](C)CC)C(=O)N[C@@H](C)C(=O)N[C@@H](C)C(=O)N[C@@H](CCC(N)=O)C(=O)N[C@@H](CC(=O)O)C(=O)N[C@@](C)(Cc1ccccc1)C(=O)N[C@H](C(=O)N[C@@H](CCC(N)=O)C(=O)NC(C)(C)C(=O)N[C@H](C(=O)N[C@H](C(=O)N[C@@H](CC(N)=O)C(=O)N[C@H](C(N)=O)[C@@H](C)O)[C@@H](C)CC)[C@@H](C)CC)C(C)C)C(=O)O)C(=O)O [Peptide 119] (H-HSQGS[αMeF]TSDVSKILDSK([PEG2-PEG2-γGlu-γGlu-Myristoyl])AAQD[αMeF]VQ[Aib]IINT-NH2; N-terminus assumed), which EC50 [1] is on record?
A: 1.7 pM

Q: And the EC50 [2]?
A: 1.39 pM

Q: What about the “% Relative Potency Ratio” value [2] of the same compound?
A: 2.4

Q: For CCCCCCCCCCCCCCCCCC(=O)N[C@@H](CCC(=O)NCCOCCOCCC(=O)NCCOCCOCCC(=O)NCCCC[C@H](NC(=O)[C@H](CO)NC(=O)[C@H](CC(=O)O)NC(=O)[C@H](CC(C)C)NC(=O)[C@@H](NC(=O)[C@H](CCCCN)NC(=O)[C@H](CO)NC(=O)[C@@H](NC(=O)[C@H](CC(=O)O)NC(=O)[C@H](CO)NC(=O)[C@@H](NC(=O)[C@](C)(Cc1ccccc1)NC(=O)[C@H](CO)NC(=O)CNC(=O)[C@H](CCC(N)=O)NC(=O)[C@H](CO)NC(=O)[C@@H](N)Cc1c[nH]cn1)[C@@H](C)O)C(C)C)[C@@H](C)CC)C(=O)N[C@@H](C)C(=O)N[C@@H](C)C(=O)N[C@@H](CCC(N)=O)C(=O)N[C@@H](CC(=O)O)C(=O)N[C@@](C)(Cc1ccccc1)C(=O)N[C@H](C(=O)N[C@@H](CCC(N)=O)C(=O)NC(C)(C)C(=O)N[C@H](C(=O)N[C@H](C(=O)N[C@@H](CC(N)=O)C(=O)N[C@H](C(N)=O)[C@@H](C)O)[C@@H](C)CC)[C@@H](C)CC)C(C)C)C(=O)O [Peptide 120] (H-HSQGS[αMeF]TSDVSKILDSK([PEG2-PEG2-γGlu-Stearoyl])AAQD[αMeF]VQ[Aib]IINT-NH2; N-terminus assumed), which EC50 [1] is on record?
A: 2.62 pM

Q: What about the EC50 [2] of the same compound?
A: 1.81 pM

Q: And the “% Relative Potency Ratio” value [2]?
A: 2.9

Q: For CCCCCCCCCCCCCCCC(=O)N[C@@H](CCC(=O)NCCOCCOCCC(=O)NCCOCCOCCC(=O)NCCCC[C@H](NC(=O)[C@H](CO)NC(=O)[C@H](CC(=O)O)NC(=O)[C@H](CC(C)C)NC(=O)[C@@H](NC(=O)[C@H](CCCCN)NC(=O)[C@H](CO)NC(=O)[C@@H](NC(=O)[C@H](CC(=O)O)NC(=O)[C@H](CO)NC(=O)[C@@H](NC(=O)[C@](C)(Cc1ccccc1)NC(=O)[C@H](CO)NC(=O)CNC(=O)[C@H](CCC(N)=O)NC(=O)[C@H](CO)NC(=O)[C@@H](N)Cc1c[nH]cn1)[C@@H](C)O)C(C)C)[C@@H](C)CC)C(=O)N[C@@H](C)C(=O)N[C@@H](C)C(=O)N[C@@H](CCC(N)=O)C(=O)N[C@@H](CC(=O)O)C(=O)N[C@@](C)(Cc1ccccc1)C(=O)N[C@H](C(=O)N[C@@H](CCC(N)=O)C(=O)NC(C)(C)C(=O)N[C@H](C(=O)N[C@H](C(=O)N[C@@H](CC(N)=O)C(=O)N[C@H](C(N)=O)[C@@H](C)O)[C@@H](C)CC)[C@@H](C)CC)C(C)C)C(=O)O [Peptide 121] (H-HSQGS[αMeF]TSDVSKILDSK([PEG2-PEG2-γGlu-Palmitoyl])AAQD[αMeF]VQ[Aib]IINT-NH2; N-terminus assumed), which EC50 [1] is on record?
A: 1.2 pM

Q: What about the EC50 [2] of the same compound?
A: 1.5 pM

Q: And the “% Relative Potency Ratio” value [2]?
A: 1.6

Q: CCCCCCCCCCCCCCCC(=O)N[C@@H](CCC(=O)N[C@@H](CCC(=O)NCCOCCOCCC(=O)NCCOCCOCCC(=O)NCCCC[C@H](NC(=O)[C@H](CO)NC(=O)[C@H](CC(=O)O)NC(=O)[C@H](CC(C)C)NC(=O)[C@@H](NC(=O)[C@H](CCCCN)NC(=O)[C@H](CO)NC(=O)[C@@H](NC(=O)[C@H](CC(=O)O)NC(=O)[C@H](CO)NC(=O)[C@@H](NC(=O)[C@](C)(Cc1ccccc1)NC(=O)[C@H](CO)NC(=O)CNC(=O)[C@H](CCC(N)=O)NC(=O)C(C)(C)NC(=O)[C@@H](N)Cc1c[nH]cn1)[C@@H](C)O)C(C)C)[C@@H](C)CC)C(=O)N[C@@H](C)C(=O)N[C@@H](C)C(=O)N[C@@H](CCC(N)=O)C(=O)N[C@@H](CC(=O)O)C(=O)N[C@@](C)(Cc1ccccc1)C(=O)N[C@H](C(=O)N[C@@H](CCC(N)=O)C(=O)N[C@H](C(=O)N[C@H](C(=O)N[C@@H](C)C(=O)N[C@@H](CC(N)=O)C(N)=O)[C@@H](C)CC)[C@@H](C)CC)C(C)C)C(=O)O)C(=O)O [Peptide 123] (H-H[Aib]QGS[αMeF]TSDVSKILDSK([PEG2-PEG2-γGlu-γGlu-Palmitoyl])AAQD[αMeF]VQIIAN-NH2; N-terminus assumed) was tested. Which EC50 [1] did it give?
A: 12.9 pM

Q: What about the “% Relative Potency Ratio” value [2] of the same compound?
A: 51.4
